Like-named read-outs stand apart in the source and are kept apart here.
Assays:
[1] = tested on: N87 (human gastric cancer cell NCI-N87); test: In vitro proliferation inhibition assay of cell lines (CellTiter-Glo), N87; format: cell-based; conditions: N87 cells, 72 hours
Protocol: (§1) In Vitro Proliferation Inhibition Assay of Cell Lines
(§2) 1. Cell culture and inoculation: on the first day of the experiment, normal cultured cells were taken, and in the exponential growth state, after digestion and dispersion, the cell density was then adjusted to 8.8×10^4 cells/mL for BT-474, and 6.6×10^4 cells/mL for N87, and 90 μL of which were inoculated to each well of a 96-well cell culture plate; after the inoculation was completed, the microplate was cultured under the conditions of 37° C. and 5% CO2 overnight. 2. Dosing to the cells: on the second day of the experiment, the microplate was taken out from the incubator, and 10 μL of 10× compound was added to each well of the microplate, setting 2 duplicate wells for each drug concentration and 9 dosing concentrations for each compound. According to different cell lines, the initial concentration of each compound was different. Upon completion of addition, the microplate was placed under the conditions of 37° C. and 5% CO2 for 72 hours. 3. Data acquisition: the microplate was taken out from the incubator and was allowed to equilibrate at room temperature for 30 minutes. 100 μL of CellTiter-Glo® Luminescent Cell Viability Assay reaction solution which had been equilibrated at room temperature was added to each well, and the reaction solution was shaken at 1300 rpm for 2 minutes at room temperature. After that, the microplate was placed in HERAEUS Multifuge X1R centrifuge, centrifuged at 2000 rpm for 1 minute, and allowed to equilibrate at room temperature for 10 minutes. The fluorescence signal value was measured on EnVision™.

CYP2C19 = target: T1, CYP2C19 (Homo sapiens, UniProt P33261); test: Direct inhibition (DI) of CYP2C19 in human liver microsomes; format: in vitro ADME; conditions: probe Mephenytoin, human liver microsomes 0.2 mg/mL, 10 μM compound, read-out: Direct inhibition (DI) 2C19 (Mephenytoin)
T1 construct: A system of 100 μL human liver microsomes; from tissue; host or cells: human liver microsomes
Protocol: (§3) Study on Direct Inhibition (DI) of CYP3A4, CYP2D6, CYP2C9, CYP2C19, CYP1A2
(§4) A system of 100 μL human liver microsomes (final concentration: 0.2 mg/mL) was used for direct inhibition under warm incubation. The system contained NADPH (final concentration: 1 mM), 10 μM compound, a positive inhibitor cocktail (Ketoconazole 10 μM, Quinidine: 10 μM, Sulfaphenazole: 100 μM, Naphthoflavone: 10 μM, Tranylcypromene 1000 μM), a negative control 10 μM DMSO and mixed probe substrates (Midazolam 10 μM, Testosterone 100 μM, Dextromethophan 10 μM, Diclofenac 20 μM, Phenetin 100 μM, Mephenytoin 100 μM). The reaction was terminated after incubation for 20 minutes. The relative activity of the enzymes was calculated by measuring the relative production of metabolites.

CYP1A2 = target: T2, CYP1A2 (Homo sapiens, UniProt P05177); test: Direct inhibition (DI) of CYP1A2 in human liver microsomes; format: in vitro ADME; conditions: probe Phenacetin, human liver microsomes 0.2 mg/mL, 10 μM compound, read-out: Direct inhibition (DI) 1A2 (Phenacetin)
T2 construct: A system of 100 μL human liver microsomes; from tissue; host or cells: human liver microsomes
T2 sequence (P05177 1-516): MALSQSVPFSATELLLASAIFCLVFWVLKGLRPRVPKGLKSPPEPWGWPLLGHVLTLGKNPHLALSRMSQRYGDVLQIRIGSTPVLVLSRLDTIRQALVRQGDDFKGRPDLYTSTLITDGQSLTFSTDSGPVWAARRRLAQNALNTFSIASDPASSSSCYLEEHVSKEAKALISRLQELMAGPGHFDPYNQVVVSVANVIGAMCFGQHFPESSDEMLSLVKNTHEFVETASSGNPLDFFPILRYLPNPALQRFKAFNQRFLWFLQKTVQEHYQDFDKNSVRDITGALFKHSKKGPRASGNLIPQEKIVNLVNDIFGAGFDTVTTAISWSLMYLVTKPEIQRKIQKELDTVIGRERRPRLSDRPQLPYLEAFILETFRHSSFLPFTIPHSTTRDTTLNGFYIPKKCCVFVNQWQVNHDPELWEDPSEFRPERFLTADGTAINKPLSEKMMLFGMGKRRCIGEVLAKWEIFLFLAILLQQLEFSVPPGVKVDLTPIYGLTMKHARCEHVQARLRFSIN
Protocol: as §3, §4

EGFR kinase = EGFR kinase (Homo sapiens, UniProt P00533); test: EGFR/ErbB2 enzymatic experiment (HTRF kinEASE-TK), EGFR; format: biochemical; conditions: EGFR kinase 0.06 units/μL, ATP 1.65 μM; read-out: Kinase IC50 (nM) in vitro EGFR
Protocol: (§5) EGFR/ErbB2 Enzymatic Experiment
(§6) Firstly, 1× reaction buffer required for the kinase was prepared, then 5× Enzymatic buffer (HEPES 20 mM pH 7.0, NaN3 0.1%, BSA 0.05%, sodium orthovanadate 0.5 mM) was diluted in HTRF kinEASE-TK kit by 1 time with deionized water, and 50 nM Supplement Enzymatic buffer (SEB REAGENT), 1 mM MnCl2, 5 mM MfCl2, 1 mM DTT were added. Secondly, 5× compound was prepared, and 10 mM test compound storage solution was diluted in multiple steps with DMSO in a 96-well compound plate to prepare 100× compound as an initial concentration, which was then used as the first concentration to carry out a 3-fold gradient dilution with DMSO to obtain a total of 10 concentrations. Then 1 μL of gradient diluent was added to 19 μL of 1× reaction buffer to prepare 5× compound for later use. Then 2 μL of 5× compound was transferred from the 96-well plate into a 384-well plate. To the compound-free control wells was added 2 μL of the following liquid: 19 μL of 1× reaction buffer with addition of 1 μL of DMSO. To the blank control well was added 2 μL of 250 mM EDTA. […] In the fourth step of reaction termination, HTRF Detection buffer was used to prepare a mixture of 2×TK Antibody-EU (K) and Sa-XL665, and the amount of TK Antibody-EU (K) was 5 μL per well. After the enzyme reaction was carried out for 30 minutes, 10 μL of the above liquid was added to a 384-well plate, and the reaction was carried out at room temperature for 1 hour. […] RFU665 nM and RFU620 nM were measured, and RFU665 nM/RFU620 nM×10000 was used as final data for analysis.

CYP2D6 = target: T3, CYP2D6 (Homo sapiens, UniProt P10635); test: Direct inhibition (DI) of CYP2D6 in human liver microsomes; format: in vitro ADME; conditions: probe Dextromethorphan, human liver microsomes 0.2 mg/mL, 10 μM compound, read-out: Direct inhibition (DI) 2D6 (Dextromethorphan)
T3 construct: A system of 100 μL human liver microsomes; from tissue; host or cells: human liver microsomes
Protocol: as §3, §4

CYP3A4 = target: T4, CYP3A4 (Homo sapiens, UniProt P08684); test: Direct inhibition (DI) of CYP3A4 in human liver microsomes; format: in vitro ADME; conditions: human liver microsomes 0.2 mg/mL, 10 μM compound
T4 construct: A system of 100 μL human liver microsomes; from tissue; host or cells: human liver microsomes
Protocol: as §3, §4

CYP2C9 = target: T5, CYP2C9 (Homo sapiens, UniProt P11712); test: Direct inhibition (DI) of CYP2C9 in human liver microsomes; format: in vitro ADME; conditions: probe Diclofenac, human liver microsomes 0.2 mg/mL, 10 μM compound, read-out: Direct inhibition (DI) 2C9 (Diclofenac)
T5 construct: A system of 100 μL human liver microsomes; from tissue; host or cells: human liver microsomes
Protocol: as §3, §4

[2] = tested on: BT-474 (human breast cancer cell); test: In vitro proliferation inhibition assay of cell lines (CellTiter-Glo), BT-474; format: cell-based; conditions: BT-474 cells, 72 hours
Protocol: as §1
as §2, with “Cell culture and inoculation: on the first day of the experiment, normal cultured cells were taken, and in the exponential growth state, after digestion and dispersion, the cell density was then adjusted to 8.8×10^4 cells/mL for BT-474, and 6.6×10^4 cells/mL for N87, and 90 μL of which were inoculated to each well of a 96-well cell culture plate; after the inoculation was completed, the microplate was cultured under the conditions of 37° C. and 5% CO2 overnight.” left out

ErbB2 kinase = target: T6, ErbB2 kinase (Homo sapiens, UniProt P04626); test: EGFR/ErbB2 enzymatic experiment (HTRF kinEASE-TK), ErbB2; format: biochemical; conditions: ErbB2 kinase 0.06 ng/μL, ATP 4 μM; read-out: Kinase IC50 (nM) in vitro ErbB2
T6 construct: The final concentration of ErbB2 kinase was 0.06 ng/μL
Protocol: as §5, §6

[3] = probe Midazolam, read-out: Direct inhibition (DI) 3A4 (Midazolam)
[4] = probe Testosterone, read-out: Direct inhibition (DI) 3A4 (testosterone)

T4 sequence (P08684 whole entry): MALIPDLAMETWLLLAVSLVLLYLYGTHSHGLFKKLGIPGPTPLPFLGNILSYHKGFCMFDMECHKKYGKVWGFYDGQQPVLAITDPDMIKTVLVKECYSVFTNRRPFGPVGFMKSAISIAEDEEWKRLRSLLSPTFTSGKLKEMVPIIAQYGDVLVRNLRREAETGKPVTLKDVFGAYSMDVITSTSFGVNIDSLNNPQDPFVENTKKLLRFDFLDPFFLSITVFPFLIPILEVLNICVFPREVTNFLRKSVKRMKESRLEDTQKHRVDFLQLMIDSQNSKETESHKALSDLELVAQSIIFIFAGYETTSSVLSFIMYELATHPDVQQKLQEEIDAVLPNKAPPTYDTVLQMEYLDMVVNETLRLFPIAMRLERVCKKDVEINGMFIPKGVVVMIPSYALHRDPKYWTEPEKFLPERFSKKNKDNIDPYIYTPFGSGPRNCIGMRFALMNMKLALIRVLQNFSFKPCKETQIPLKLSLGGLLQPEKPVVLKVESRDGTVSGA
T6 sequence (P04626 23-1255): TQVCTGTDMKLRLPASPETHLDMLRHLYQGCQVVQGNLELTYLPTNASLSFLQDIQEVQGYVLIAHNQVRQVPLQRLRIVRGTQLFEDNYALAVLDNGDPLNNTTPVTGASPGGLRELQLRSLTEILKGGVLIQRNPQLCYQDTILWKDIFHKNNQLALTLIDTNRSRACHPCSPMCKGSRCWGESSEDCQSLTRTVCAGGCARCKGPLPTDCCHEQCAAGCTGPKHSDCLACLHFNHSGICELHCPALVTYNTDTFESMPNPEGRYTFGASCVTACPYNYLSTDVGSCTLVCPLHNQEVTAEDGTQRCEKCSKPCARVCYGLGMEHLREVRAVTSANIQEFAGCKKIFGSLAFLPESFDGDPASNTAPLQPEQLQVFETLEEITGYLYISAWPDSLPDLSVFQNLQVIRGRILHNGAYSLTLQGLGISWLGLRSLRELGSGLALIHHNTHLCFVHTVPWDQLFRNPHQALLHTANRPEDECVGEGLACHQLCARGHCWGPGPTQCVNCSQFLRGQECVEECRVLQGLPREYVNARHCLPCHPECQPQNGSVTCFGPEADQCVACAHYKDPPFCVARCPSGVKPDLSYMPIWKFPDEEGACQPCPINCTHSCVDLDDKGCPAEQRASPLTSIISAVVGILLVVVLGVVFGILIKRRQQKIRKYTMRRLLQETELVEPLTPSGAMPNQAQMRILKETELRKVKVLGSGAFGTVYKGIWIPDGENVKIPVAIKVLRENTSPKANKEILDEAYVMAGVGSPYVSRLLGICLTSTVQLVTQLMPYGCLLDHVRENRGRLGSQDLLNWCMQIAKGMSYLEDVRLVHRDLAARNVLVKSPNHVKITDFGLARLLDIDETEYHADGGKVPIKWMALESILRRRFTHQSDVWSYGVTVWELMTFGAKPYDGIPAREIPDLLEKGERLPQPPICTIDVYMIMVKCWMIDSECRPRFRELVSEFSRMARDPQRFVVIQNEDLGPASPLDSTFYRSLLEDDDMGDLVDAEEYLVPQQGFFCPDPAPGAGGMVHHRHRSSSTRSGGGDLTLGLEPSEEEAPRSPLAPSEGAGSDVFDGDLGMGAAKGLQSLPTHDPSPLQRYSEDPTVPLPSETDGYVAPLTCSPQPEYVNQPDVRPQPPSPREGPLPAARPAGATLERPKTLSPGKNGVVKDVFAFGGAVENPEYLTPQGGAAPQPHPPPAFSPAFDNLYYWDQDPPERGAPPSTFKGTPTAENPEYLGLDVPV
Chain of EGFR kinase (P00533 25-1210): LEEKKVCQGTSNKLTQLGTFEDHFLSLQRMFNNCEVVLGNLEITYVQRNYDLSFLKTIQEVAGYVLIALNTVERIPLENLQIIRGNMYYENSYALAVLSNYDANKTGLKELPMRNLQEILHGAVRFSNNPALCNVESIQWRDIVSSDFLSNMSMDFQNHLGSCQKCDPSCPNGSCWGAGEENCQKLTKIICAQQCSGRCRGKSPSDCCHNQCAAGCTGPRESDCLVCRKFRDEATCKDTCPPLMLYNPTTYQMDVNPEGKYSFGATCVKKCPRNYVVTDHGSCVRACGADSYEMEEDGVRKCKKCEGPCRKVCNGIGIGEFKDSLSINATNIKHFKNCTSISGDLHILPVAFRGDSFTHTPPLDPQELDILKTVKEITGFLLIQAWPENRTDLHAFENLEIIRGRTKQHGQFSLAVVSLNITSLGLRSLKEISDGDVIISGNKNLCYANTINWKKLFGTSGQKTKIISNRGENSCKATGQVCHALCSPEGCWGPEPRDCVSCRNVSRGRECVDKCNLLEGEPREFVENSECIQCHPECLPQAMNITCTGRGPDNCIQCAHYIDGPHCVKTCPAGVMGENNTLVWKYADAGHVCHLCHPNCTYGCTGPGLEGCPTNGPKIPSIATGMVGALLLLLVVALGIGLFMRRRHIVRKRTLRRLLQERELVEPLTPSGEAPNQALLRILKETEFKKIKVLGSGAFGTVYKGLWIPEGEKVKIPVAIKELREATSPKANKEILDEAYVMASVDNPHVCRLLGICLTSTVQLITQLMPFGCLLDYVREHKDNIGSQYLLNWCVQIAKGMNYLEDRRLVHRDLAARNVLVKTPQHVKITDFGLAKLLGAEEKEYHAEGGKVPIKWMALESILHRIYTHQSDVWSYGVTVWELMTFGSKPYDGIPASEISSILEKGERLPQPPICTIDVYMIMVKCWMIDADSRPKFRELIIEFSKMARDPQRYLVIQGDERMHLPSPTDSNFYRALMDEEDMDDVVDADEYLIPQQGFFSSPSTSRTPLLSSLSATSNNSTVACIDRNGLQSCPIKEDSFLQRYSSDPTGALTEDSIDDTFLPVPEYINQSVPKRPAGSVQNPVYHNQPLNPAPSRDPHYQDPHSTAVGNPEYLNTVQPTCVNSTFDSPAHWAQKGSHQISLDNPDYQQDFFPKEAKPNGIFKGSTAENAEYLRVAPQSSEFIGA
T3 sequence (P10635 whole entry): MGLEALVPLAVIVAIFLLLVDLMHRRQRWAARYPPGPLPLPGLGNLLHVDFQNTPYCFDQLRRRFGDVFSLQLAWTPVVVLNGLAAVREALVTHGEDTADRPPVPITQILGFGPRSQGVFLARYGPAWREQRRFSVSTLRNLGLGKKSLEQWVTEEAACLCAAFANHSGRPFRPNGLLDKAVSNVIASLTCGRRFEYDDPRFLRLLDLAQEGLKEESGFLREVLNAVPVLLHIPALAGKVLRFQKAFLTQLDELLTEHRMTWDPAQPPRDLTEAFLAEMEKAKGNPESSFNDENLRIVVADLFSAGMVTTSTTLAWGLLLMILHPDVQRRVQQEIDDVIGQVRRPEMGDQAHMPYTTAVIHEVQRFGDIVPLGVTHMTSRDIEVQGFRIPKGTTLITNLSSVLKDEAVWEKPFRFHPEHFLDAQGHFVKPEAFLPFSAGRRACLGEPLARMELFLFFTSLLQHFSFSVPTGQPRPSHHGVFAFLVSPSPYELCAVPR
T5 sequence (P11712 whole entry): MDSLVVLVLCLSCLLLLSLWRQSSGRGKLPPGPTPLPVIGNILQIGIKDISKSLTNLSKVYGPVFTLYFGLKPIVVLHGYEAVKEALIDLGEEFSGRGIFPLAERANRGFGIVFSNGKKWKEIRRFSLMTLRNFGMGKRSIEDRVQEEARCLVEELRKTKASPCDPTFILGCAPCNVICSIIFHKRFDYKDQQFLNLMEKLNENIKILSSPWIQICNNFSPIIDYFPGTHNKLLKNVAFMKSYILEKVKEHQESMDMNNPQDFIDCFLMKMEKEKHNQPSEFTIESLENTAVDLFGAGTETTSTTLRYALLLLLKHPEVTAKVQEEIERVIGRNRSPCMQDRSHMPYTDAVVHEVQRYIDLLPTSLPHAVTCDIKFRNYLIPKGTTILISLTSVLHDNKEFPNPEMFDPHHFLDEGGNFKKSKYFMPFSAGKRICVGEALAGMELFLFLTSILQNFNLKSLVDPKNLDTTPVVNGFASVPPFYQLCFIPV
T1 sequence (P33261 whole entry): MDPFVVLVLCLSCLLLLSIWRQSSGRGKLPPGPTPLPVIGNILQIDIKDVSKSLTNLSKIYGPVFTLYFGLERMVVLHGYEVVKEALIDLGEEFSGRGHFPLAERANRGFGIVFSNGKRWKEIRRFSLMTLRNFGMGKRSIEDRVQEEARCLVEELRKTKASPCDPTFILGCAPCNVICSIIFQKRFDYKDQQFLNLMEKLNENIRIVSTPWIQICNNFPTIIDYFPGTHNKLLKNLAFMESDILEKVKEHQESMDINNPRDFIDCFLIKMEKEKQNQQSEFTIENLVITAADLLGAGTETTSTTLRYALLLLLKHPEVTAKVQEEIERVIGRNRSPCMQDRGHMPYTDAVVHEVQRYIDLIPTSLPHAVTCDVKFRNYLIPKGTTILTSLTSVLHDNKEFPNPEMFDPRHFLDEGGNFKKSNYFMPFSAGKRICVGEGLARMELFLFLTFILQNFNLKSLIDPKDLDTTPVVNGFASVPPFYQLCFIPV

| Compound | IC50 [1] | inhibition at 20 min, 10 µM (CYP2C19) | inhibition at 20 min, 10 µM (CYP1A2) | IC50 (EGFR kinase) | inhibition at 20 min, 10 µM (CYP2D6) | inhibition at 20 min, 10 µM (CYP3A4; [3]) | inhibition at 20 min, 10 µM (CYP3A4; [4]) | inhibition at 20 min, 10 µM (CYP2C9) | IC50 [2] | IC50 (ErbB2 kinase) |
| --- | --- | --- | --- | --- | --- | --- | --- | --- | --- | --- |
| CCOc1cc2ncc(C#N)c(Nc3ccc(Oc4cc5nncn5cn4)c(C)c3)c2cc1NC(=O)/C=C/[C@H]1CCCN1 [Final product of Embodiment 32] | 4.2 nM | 75% | < 0% | 1.06 nM | 6% | 8% | 11% | 66% | 4 nM | 3.13 nM |
| C=CC(=O)N[C@H]1CCCN(c2ccc3ncnc(Nc4ccc(Oc5cc6nncn6cn5)c(C)c4)c3c2)C1 [Final product of Embodiment 5, (S)—N-(1-(4-((4-([1,2,4]triazolo[4,3-c]pyrimidin-7-yloxy)-3-methylphenyl)amino)quinazolin-6-yl)piperidin-3-yl)acrylamide] | 20.1 nM | 18% | 9% | 62.1 nM | 14% | 71% | 74% | 49% | 14.4 nM | 2.04 nM |
| C=CC(=O)NC1CCC=C(c2ccc3ncnc(Nc4ccc(Oc5cc6nncn6cn5)c(C)c4)c3c2)C1 (centres unmarked) [Final product of Embodiment 1, N-(3-(4-((4-([1,2,4]triazolo[4,3-c]pyrimidin-7-yloxy)-3-methylphenyl)amino)quinazolin-6-yl)cyclohex-3-en-1-yl)acrylamide] | 4.45 nM | 37% | 47% | 14.4 nM | 25% | 91% | 94% | 74% | 5.07 nM | 0.947 nM |
| Cc1cc(Nc2ncnc3ccc(NC(=O)/C=C/[C@H]4CCCN4)cc23)ccc1Oc1ccn2ncnc2c1 [Final product of Embodiment 19, (R,E)-N-(4-((4-([1,2,4]triazolo[1,5-a]pyridin-7-yloxy)-3-methylphenyl)amino)quinazolin-6-yl)-3-(pyrrolidin-2-yl)acrylamide] | 28.4 nM | < 0% | 7% | 3.97 nM | 60% | 16% | 38% | < 0% | 26 nM | 0.716 nM |
| C=CC(=O)N1CCC(c2ccc3ncnc(Nc4ccc(Oc5cc6nncn6cn5)c(C)c4)c3c2)CC1 [Final product of Embodiment 4, 1-(4-(4-((4-([1,2,4]triazolo[4,3-c]pyrimidin-7-yloxy)-3-methylphenyl)amino)quinazolin-6-yl)piperidin-1-yl)propan-2-en-1-one] | 5.75 nM | 23% | < 0% | 168 nM | 7% | 49% | 56% | 48% | 4.79 nM | 6.09 nM |

The remaining molecules from weak to strong by IC50 [1], led by results:

| IC50 [1] | inhibition at 20 min, 10 µM (CYP2C19) | inhibition at 20 min, 10 µM (CYP1A2) | IC50 (EGFR kinase) | inhibition at 20 min, 10 µM (CYP2D6) | inhibition at 20 min, 10 µM (CYP3A4; [3]) | inhibition at 20 min, 10 µM (CYP3A4; [4]) | inhibition at 20 min, 10 µM (CYP2C9) | IC50 [2] | IC50 (ErbB2 kinase) | Compound |
| --- | --- | --- | --- | --- | --- | --- | --- | --- | --- | --- |
| 4.19 nM | 13% | 2% | 0.42 nM | 77% | < 0% | 4% | 5% | 4.01 nM | 0.99 nM | Cc1cc(Nc2ncnc3ccc(NC(=O)/C=C/[C@H]4CCCN4C)cc23)ccc1Oc1ccn2ncnc2n1 [Final product of Embodiment 12, (R,E)-N-(4-((4-([1,2,4]triazolo[1,5-a]pyrimidin-5-yloxy)-3-methylphenyl)amino)quinazolin-6-yl)-3-(1-methylpyrrolidin-2-yl)-acrylamide] |
| 3.8 nM | 47% | 35% | 38.5 nM | 54% | 33% | 42% | 34% | 7.1 nM | 4.2 nM | CCOc1cc2ncnc(Nc3ccc(Oc4ccn5ncnc5c4)c(C)c3)c2cc1NC(=O)/C(F)=C/[C@@H]1CCCN1C [Final product of Embodiment 47] |
| 3.1 nM | 43% | 23% | 50.9 nM | 38% | 14% | 32% | 21% | 5.9 nM | 4.6 nM | CCOc1cc2ncnc(Nc3ccc(Oc4ccn5ncnc5c4)c(C)c3)c2cc1NC(=O)/C(F)=C\[C@@H]1CCCN1C |

Source: patent US11578074B2, “Nitrogenous heterocyclic compound, preparation method, intermediate, composition, and application” (SHANGHAI PHARMACEUTICALS HOLDING CO., LTD., priority 2017, dated 2023)
